Results as given in patent US8389508B2 (Glaxo Group Limited, priority 2010, dated 2013).
Structures can show the parent of a compound that is named as a salt.

Key:
[1] = target: T1, human Endothelial Differentiation G-protein Coupled Receptor 3 (EDG3), S1P3 receptor (Homo sapiens, UniProt Q99500); test: S1P3 Assay (GeneBLAzer EDG3-Ga15-NFAT-bla HEK 293T beta-lactamase reporter, agonist dose response); type: cell-based; conditions: EDG3-Ga15-NFAT-bla HEK 293T cells, blue/green emission ratio, 10 point dose response, free base or salt form; read-out: pEC50 (S1P3 assay) (converted)
T1 construct: expressed in transfected cells; host or cells: GeneBLAzer EDG3-Ga15-NFAT-bla HEK 293T
Protocol: GeneBLAzer EDG3-Ga15-NFAT-bla HEK 293T cells (contain the human Endothelial Differentiation G-protein Coupled Receptor 3 (EDG3) and a beta-lactamase reporter gene under control of a NFAT response element and a promiscuous G Protein, Ga15, stably integrated into the GeneBLAzer Ga15-NFAT-bla HEK 293T cell line) were harvested from growth medium and suspended in assay medium (90% DMEM, 10% Charcoal-stripped FBS, 0.1 mM NEAA, 25 mM HEPES (pH 7.3), 100 U/ml penicillin, 100 μg/ml streptomycin) at a density of […]. All test compounds were dissolved in DMSO at a concentration of 10 mM and were prepared in 100% DMSO to provide 10 point dose response curves. Test compounds in the free base or in a salt form were prepared by Velocity 11 Bravo automation (Agilent) were added to wells in columns 2-11 and 13-22; DMSO was added to wells in columns 12 and 23 as unstimulated controls and assay medium was added to wells in columns 1 and 24 as cell-free controls. An S1P3 agonist was added to wells in row 2, columns 2-11 as stimulated controls and test compounds were added to wells in row 2, columns 13-22 and rows 3-15, columns 2-11/13-22 (row 1 and 16 were empty and not used). Compounds in solution were added to the assay plate (Greiner 781090) using an Echo (Labcyte) dose-response program (50 nl/well). The unstimulated and cell-free controls were loaded with 50 nl/well pure DMSO to ensure that the DMSO concentration was constant across the plate for all assays.
50 μl of the cell suspension was added to each well in columns 2-23 of the plate (˜10,000 cells per well). 50 μl of assay medium was added to each well in the cell-free controls (columns 1 and 24). The cells were incubated overnight at 37° C./5% CO2.
(§1) 10 μl of 6× substrate mixture (LiveBLAzer™-FRET B/G substrate (CCF4-AM) Cat # K1096 from Invitrogen, Inc.) was added to each well using Bravo automation and the plates incubated at room temperature for 2 h in the dark. The plate was finally read on EnVision using one excitation channel (409 nm) and two emission channels (460 nm and 530 nm).
(§2) The blue/green emission ratio (460 nm/530 nm) was calculated for each well, by dividing the background-subtracted Blue emission values by the background-subtracted Green emission values. The dose response curve is based on sigmoidal dose-response model. All ratio data was normalized based upon the maximum emission ratio of positive control and minimum emission ratio of negative control (DMSO) on each plate. The intrinsic activity (IA) of each compound is defined as relative response normalised to a reference compound, whose maximum response is defined as 100% after curve fitting.

[2] = target: T2, human Endothelial Differentiation Gene 1 (EDG1), S1P1 receptor (Homo sapiens, UniProt P21453); test: S1P1 Assay (Tango EDG1-bla/U2OS beta-lactamase reporter, agonist dose response); type: cell-based; conditions: EDG1-bla/U2OS cells, blue/green emission ratio, 10 point dose response, free base or salt form; read-out: pEC50 (S1P1 assay) (converted)
T2 construct: TEV protease site; Gal4-VP16 transcription factor; expressed in transfected cells; host or cells: EDG1-bla/U2OS (Tango GPCR-bla U2OS parental cell line)
Protocol: Recombinant EDG1-bla/U2OS cells (contain the human Endothelial Differentiation Gene 1 (EDG1) linked to a TEV protease site and a Gal4-VP16 transcription factor stably integrated into the Tango GPCR-bla U2OS parental cell line) were harvested from growth medium and passaged into assay medium (Invitrogen Freestyle Expression Medium). The cells were starved for 24 hours at 37° C., 5% CO2, harvested and resuspended in assay medium at a density of ˜200,000 cells/ml. All test compounds were dissolved in DMSO at a concentration of 10 mM and were prepared in 100% DMSO to provide 10 point dose response curves. Test compounds in the free base or in a salt form were prepared by Velocity11 Bravo automation (Agilent) were added to wells in columns 2-11 and 13-22; DMSO was added to wells in columns 12 and 23 as unstimulated controls and assay medium was added to wells in columns 1 and 24 as cell-free controls. An S1P1 agonist was added to wells in row 2, columns 2-11 as stimulated controls and test compounds were added to wells in row 2, columns 13-22 and rows 3-15, columns 2-11/13-22 (row 1 and 16 were empty and not used). Compounds in solution were added to the assay plate (Greiner 781090) using an Echo (Labcyte) dose-response program (50 nl/well). The unstimulated and cell-free controls were loaded with 50 nl/well pure DMSO to ensure that the DMSO concentration was constant across the plate for all assays. 50 μl of the cell suspension was added to each well in columns 2-23 of the plate (˜10,000 cells per well). 50 μl of assay medium was added to each well in the cell-free controls (columns 1 and 24). The cells were incubated overnight at 37° C./5% CO2.
as §1, §2

T1 sequence (Q99500 whole entry): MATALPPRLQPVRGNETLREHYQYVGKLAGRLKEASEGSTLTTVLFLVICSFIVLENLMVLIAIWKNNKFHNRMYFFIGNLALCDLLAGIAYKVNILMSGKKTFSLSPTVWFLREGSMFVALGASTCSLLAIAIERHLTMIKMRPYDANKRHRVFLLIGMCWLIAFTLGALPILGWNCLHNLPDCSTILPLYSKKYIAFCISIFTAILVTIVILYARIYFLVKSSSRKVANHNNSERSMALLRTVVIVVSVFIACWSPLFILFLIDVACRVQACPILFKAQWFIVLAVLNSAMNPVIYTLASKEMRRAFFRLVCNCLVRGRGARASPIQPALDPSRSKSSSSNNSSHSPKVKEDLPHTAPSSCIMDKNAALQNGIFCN
T2 sequence (P21453 whole entry, the tested form may be a part): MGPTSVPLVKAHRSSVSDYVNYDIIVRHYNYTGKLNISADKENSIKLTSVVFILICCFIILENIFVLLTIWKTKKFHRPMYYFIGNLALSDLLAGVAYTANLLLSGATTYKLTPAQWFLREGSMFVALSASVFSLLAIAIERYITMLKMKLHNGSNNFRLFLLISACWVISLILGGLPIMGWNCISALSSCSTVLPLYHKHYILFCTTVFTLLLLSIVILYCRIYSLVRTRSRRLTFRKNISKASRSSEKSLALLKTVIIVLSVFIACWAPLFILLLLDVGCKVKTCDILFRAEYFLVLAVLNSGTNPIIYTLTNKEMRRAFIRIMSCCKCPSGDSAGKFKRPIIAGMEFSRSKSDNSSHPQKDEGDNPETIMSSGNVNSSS

EC50 [1] [µM] | EC50 [2] [µM] | SMILES
> 3.16 | < 0.001 | CCc1c(CCN2CC(C(=O)O)C2)cccc1-c1nnc(-c2ccc(OC(C)C)c(C(F)(F)F)c2)s1 [Example 7, 1-[2-(2-ethyl-3-{5-[4-[(1-methylethyl)oxy]-3-(trifluoromethyl)phenyl]-1,3,4-thiadiazol-2-yl}phenyl)ethyl]-3-azetidinecarboxylic acid trifluoroacetate]
> 3.16 | < 0.001 | Cc1c(CCN2CCC(C(=O)O)CC2)cccc1-c1nsc(-c2ccc(OC(C)C)c(Cl)c2)n1 [Example 74, 1-{2-[3-(5-{3-chloro-4-[(1-methylethyl)oxy]phenyl}-1,2,4-thiadiazol-3-yl)-2-methylphenyl]ethyl}-4-piperidinecarboxylic acid]
> 3.16 | < 0.1 | CCc1c(CC2CCN(CCC(=O)O)CC2)cccc1-c1nsc(-c2ccc(OC(C)C)c(Cl)c2)n1 [Example 106, 3-(4-{[3-(5-{3-chloro-4-[(1-methylethyl)oxy]phenyl}-1,2,4-thiadiazol-3-yl)-2-ethylphenyl]methyl}-1-piperidinyl)propanoic acid trifluoroacetate]
> 3.16 | < 0.001 | CCc1c(CCN2CCCC(C(=O)O)C2)cccc1-c1nsc(-c2ccc(OC(C)C)c(Cl)c2)n1 (centres unmarked) [Example 70]
> 10 | ≤ 0.01 | CCc1c(-c2nsc(-c3ccc(OC(C)C)c(Cl)c3)n2)cccc1C1CCN(CCC(=O)O)CC1 [Example 100, 3-{4-[3-(5-{3-chloro-4-[(1-methylethyl)oxy]phenyl}-1,2,4-thiadiazol-3-yl)-2-ethylphenyl]-1-piperidinyl}propanoic acid]
> 10 | < 0.001 | CCc1c(CN2CC(C(=O)O)C2)cccc1-c1nnc(-c2ccc(CC(C)C)c(C#N)c2)s1 [Example 9, 1-[(3-{5-[3-cyano-4-(2-methylpropyl)phenyl]-1,3,4-thiadiazol-2-yl}-2-ethylphenyl)methyl]-3-azetidinecarboxylic acid trifluoroacetate]
> 3.16 | ≤ 0.01 | CCc1c(CN2CCC(C(=O)O)C2)cccc1-c1nnc(-c2ccc(OC(C)C)c(Cl)c2)s1 (centres unmarked) [Example 44, 1-{[3-(5-{3-chloro-4-[(1-methylethyl)oxy]phenyl}-1,3,4-thiadiazol-2-yl)-2-ethylphenyl]methyl}-3-pyrrolidinecarboxylic acid trifluoroacetate]
> 3.16 | < 0.001 | CCc1c(CN2CCC(C(=O)O)CC2)cccc1-c1nnc(-c2ccc(OC(C)C)c(C(F)(F)F)c2)s1 [Example 1, 1-[(2-ethyl-3-{5-[4-[(1-methylethyl)oxy]-3-(trifluoromethyl)phenyl]-1,3,4-thiadiazol-2-yl}phenyl)methyl]-4-piperidinecarboxylic acid]
> 3.16 | – | CCc1c(CN2CCC(C(=O)O)CC2)cccc1-c1nnc(-c2ccc(OC(C)C)c(Cl)c2)s1 [Example 3, 1-{[3-(5-{3-chloro-4-[(1-methylethyl)oxy]phenyl}-1,3,4-thiadiazol-2-yl)-2-ethylphenyl]methyl}-4-piperidinecarboxylic acid trifluoroacetate]

The next lines start with the compound.

SMILES | EC50 [1] [µM] | EC50 [2] [µM]
CCc1c(CCN2CC[C@H](C(=O)O)C2)cccc1-c1nsc(-c2ccc(CC(C)C)c(C#N)c2)n1 [Example 79] | > 3.16 | ≤ 0.01
CCc1c(-c2nsc(-c3ccc(CC(C)C)c(C#N)c3)n2)cccc1C1CN(CCCC(=O)O)C1 [Example 104, 4-[3-(3-{5-[3-cyano-4-(2-methylpropyl)phenyl]-1,2,4-thiadiazol-3-yl}-2-ethylphenyl)-1-azetidinyl]butanoic acid trifluoroacetate] | > 10 | ≤ 0.01
CCc1c(CN2CCC(CC(=O)O)CC2)cccc1-c1cnc(-c2ccc(OC(C)C)c(C#N)c2)s1 [Example 87] | > 10 | < 0.1
CCc1c(CCN2CCCC(C(=O)O)C2)cccc1-c1nnc(-c2ccc(CC(C)C)c(C#N)c2)s1 (centres unmarked) [Example 63] | > 3.16 | < 0.001
CCc1c(CN2CCC(C(=O)O)CC2)cccc1-c1nnc(-c2ccc(CC(C)C)c(C#N)c2)s1 [Example 8, 1-[(3-{5-[3-cyano-4-(2-methylpropyl)phenyl]-1,3,4-thiadiazol-2-yl}-2-ethylphenyl)methyl]-4-piperidinecarboxylic acid trifluoroacetate] | > 3.16 | < 0.001
CCc1c(CCN2CC(C(=O)O)C2)cccc1-c1nnc(-c2ccc(CC(C)C)c(C#N)c2)s1 [Example 10, 1-[2-(3-{5-[3-cyano-4-(2-methylpropyl)phenyl]-1,3,4-thiadiazol-2-yl}-2-ethylphenyl)ethyl]-3-azetidinecarboxylic acid] | > 3.16 | < 0.001
CCc1c(CCN2CC[C@H](C(=O)O)C2)cccc1-c1nnc(-c2ccc(CC(C)C)c(C#N)c2)s1 [Example 62] | > 3.16 | < 0.001
CCc1c(CN2CCCC(C(=O)O)C2)cccc1-c1nnc(-c2ccc(OC(C)C)c(Cl)c2)s1 (centres unmarked) [Example 46] | > 10 | < 0.1
CCc1c(CN2CCC(C(=O)O)CC2)cccc1-c1nsc(-c2ccc(OC(C)C)c(C(F)(F)F)c2)n1 [Example 18, 1-[(2-ethyl-3-{5-[4-[(1-methylethyl)oxy]-3-(trifluoromethyl)phenyl]-1,2,4-thiadiazol-3-yl}phenyl)methyl]-4-piperidinecarboxylic acid trifluoroacetate] | > 3.16 | < 0.1
CCc1c(-c2nsc(-c3ccc(OC(C)C)c(Cl)c3)n2)cccc1C1CCN(CC(=O)O)CC1 [Example 99, {4-[3-(5-{3-chloro-4-[(1-methylethyl)oxy]phenyl}-1,2,4-thiadiazol-3-yl)-2-ethylphenyl]-1-piperidinyl}acetic acid trifluoroacetate] | > 3.16 | ≤ 0.01
CCc1c(CN2CCC(C(=O)O)CC2)cccc1-c1cnc(-c2ccc(CC(C)C)c(C#N)c2)s1 [Example 42, 1-[(3-{2-[3-cyano-4-(2-methylpropyl)phenyl]-1,3-thiazol-5-yl}-2-ethylphenyl)methyl]-4-piperidinecarboxylic acid trifluoroacetate] | > 10 | ≤ 0.01
CCc1c(CCN2CCC[C@@H]2C(=O)O)cccc1-c1cnc(-c2ccc(OC(C)C)c(C#N)c2)s1 [Example 89] | > 10 | –
CCc1c(CN2CCC(C(=O)O)CC2)cccc1-c1nsc(-c2ccc(CC(C)C)c(C#N)c2)n1 [Example 28, 1-[(3-{5-[3-cyano-4-(2-methylpropyl)phenyl]-1,2,4-thiadiazol-3-yl}-2-ethylphenyl)methyl]-4-piperidinecarboxylic acid] | > 10 | –
